Source: ChEMBL document CHEMBL1145576, “Synthesis and structure-activity relationship of aminopyrimidine IKK2 inhibitors” (Bioorg Med Chem Lett, 2008)

Tests used:
[1] = target: T1, Inhibitor of nuclear factor kappa-B kinase subunit alpha (Homo sapiens) (UniProt O15111); test: Inhibition of IKK1 at 10 uM
T1 sequence (whole entry): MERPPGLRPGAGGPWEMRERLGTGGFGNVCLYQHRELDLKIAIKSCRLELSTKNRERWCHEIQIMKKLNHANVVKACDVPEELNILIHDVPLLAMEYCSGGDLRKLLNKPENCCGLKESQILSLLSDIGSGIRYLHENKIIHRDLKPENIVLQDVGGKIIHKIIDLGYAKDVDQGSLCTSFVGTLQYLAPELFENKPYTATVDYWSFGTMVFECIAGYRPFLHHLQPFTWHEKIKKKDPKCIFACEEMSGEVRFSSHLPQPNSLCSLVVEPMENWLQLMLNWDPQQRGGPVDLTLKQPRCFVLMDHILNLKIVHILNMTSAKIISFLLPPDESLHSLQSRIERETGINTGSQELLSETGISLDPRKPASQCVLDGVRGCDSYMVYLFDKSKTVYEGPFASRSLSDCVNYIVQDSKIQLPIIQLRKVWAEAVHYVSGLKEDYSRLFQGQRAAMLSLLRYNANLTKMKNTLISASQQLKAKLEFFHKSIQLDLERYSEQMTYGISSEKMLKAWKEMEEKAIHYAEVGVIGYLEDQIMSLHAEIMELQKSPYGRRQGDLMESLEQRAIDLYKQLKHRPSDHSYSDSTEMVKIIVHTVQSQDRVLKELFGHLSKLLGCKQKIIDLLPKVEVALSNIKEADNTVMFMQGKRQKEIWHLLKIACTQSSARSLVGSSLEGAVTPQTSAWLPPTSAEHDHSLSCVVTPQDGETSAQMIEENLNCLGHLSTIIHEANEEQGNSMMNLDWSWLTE

[2] = target: T2, Inhibitor of nuclear factor kappa-B kinase subunit beta (Homo sapiens, UniProt O14920); test: Inhibition of IKK2
T2 sequence (O14920 whole entry): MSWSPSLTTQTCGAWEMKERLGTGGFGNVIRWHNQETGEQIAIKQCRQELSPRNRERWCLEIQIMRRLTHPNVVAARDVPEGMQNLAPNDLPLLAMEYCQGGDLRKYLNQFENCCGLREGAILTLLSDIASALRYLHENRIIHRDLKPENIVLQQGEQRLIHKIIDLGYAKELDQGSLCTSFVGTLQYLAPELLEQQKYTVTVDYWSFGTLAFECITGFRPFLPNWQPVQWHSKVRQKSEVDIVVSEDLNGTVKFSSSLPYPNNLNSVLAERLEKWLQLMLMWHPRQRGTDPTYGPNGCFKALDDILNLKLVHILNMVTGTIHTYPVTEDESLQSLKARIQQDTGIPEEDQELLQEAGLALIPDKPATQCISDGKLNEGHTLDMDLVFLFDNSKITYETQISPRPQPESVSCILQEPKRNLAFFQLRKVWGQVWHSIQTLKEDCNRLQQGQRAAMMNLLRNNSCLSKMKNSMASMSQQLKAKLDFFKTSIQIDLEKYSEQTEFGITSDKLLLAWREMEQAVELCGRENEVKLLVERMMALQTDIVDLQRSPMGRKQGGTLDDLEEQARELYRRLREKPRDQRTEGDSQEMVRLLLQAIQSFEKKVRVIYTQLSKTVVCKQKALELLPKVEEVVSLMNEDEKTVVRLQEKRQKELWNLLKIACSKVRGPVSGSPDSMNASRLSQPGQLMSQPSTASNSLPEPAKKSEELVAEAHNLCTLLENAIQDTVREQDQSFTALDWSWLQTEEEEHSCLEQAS

[3] = Selectivity ratio of IC50 for E-selectin promoter transfected in human A549 cells to IC50 for IKK2; assay type: functional
A549 = test: Inhibition of TNF-alpha-stimulated E-selectin promoter transfected human A549 cells after 6 hrs; assay type: functional, cell-based; details: A549, 6 h
[4] = target: T3, Inhibitor of nuclear factor kappa-B kinase subunit alpha (Homo sapiens, UniProt O15111); test: Inhibition of IKK1
T3 sequence (O15111 whole entry): T1 sequence (whole entry)

[5] = Selectivity ratio of IC50 for IKK1 to IC50 for IKK2

Q: For `O=S(=O)(c1ccc(-c2ccnc(Nc3ccc4ncsc4c3)n2)cc1)N1CCCC1`, which inhibition [1] is on record?
A: The inhibition was 48%.

Q: What about the IC50 [2] of the same compound?
A: The IC50 was 540 nM.

Q: What about the “Ratio IC50” value [3] of the same compound?
A: The value was 2.8.

Q: And the IC50 (A549)?
A: Its IC50 is 1500 nM.

Q: Which results are given for `O=S(=O)(Nc1ccc(-c2ccnc(Nc3ccc4ncsc4c3)n2)cc1)c1ccc(Cl)cc1`?
A: IC50 [4]: 2990 nM; IC50 [2]: 990 nM; Ratio IC50 [5]: 3

Q: For `c1ccc(Oc2ccc(-c3ccnc(Nc4ccc5ncsc5c4)n3)cc2)cc1`, which IC50 [2] is on record?
A: The IC50 was 6600 nM.

Q: For `COc1cccc2nc(-c3cccs3)nc(NN3C(=O)C=C(C)C3=O)c12` [AS-602868], which IC50 [4] is on record?
A: Its IC50 is 13000 nM.

Q: With `CN(CCOc1ccc(-c2ccnc(Nc3ccc4ncsc4c3)n2)cc1)c1ccccn1` as the compound, how does the IC50 [2] read?
A: The IC50 was 4000 nM.

Q: With `c1cnc(Oc2ccc(-c3ccnc(Nc4ccc5ncsc5c4)n3)cc2)nc1` as the compound, how does the IC50 [2] read?
A: The IC50 was 3600 nM.

Q: With `O=S(=O)(Nc1ccc(-c2ccnc(Nc3ccc4ncsc4c3)n2)cc1)c1cc(Cl)c(Cl)s1` as the compound, how does the IC50 [2] read?
A: The IC50 was 8900 nM.

Q: Which results are given for `O=S(=O)(c1ccccc1)c1ccc(-c2ccnc(Nc3ccc4ncsc4c3)n2)cc1`?
A: inhibition [1]: 24%; IC50 [2]: 440 nM; Ratio IC50 [5]: > 22

Q: Which results are given for `O=S(=O)(Nc1ccc(-c2ccnc(Nc3ccc4ncsc4c3)n2)cc1)c1ccc2nonc2c1`?
A: IC50 [4]: 4840 nM; IC50 [2]: 230 nM; Ratio IC50 [5]: 21; Ratio IC50 [3]: 77; IC50 (A549): 17800 nM

Q: For `CN1CCN(c2ccc(-c3ccnc(Nc4ccc5ncsc5c4)n3)cc2)CC1`, which IC50 [4] is on record?
A: The IC50 was 2630 nM.

Q: And the IC50 [2]?
A: The IC50 was 410 nM.

Q: And the Ratio IC50 [5]?
A: The Ratio IC50 was 6.

Q: What about the “Ratio IC50” value [3] of the same compound?
A: The value was 3.1.

Q: What about the IC50 (A549) of the same compound?
A: Its IC50 is 1270 nM.

Q: What does the source list for `O=C(Nc1ccc(-c2ccnc(Nc3ccc4ncsc4c3)n2)cc1)C1CCNCC1`?
A: IC50 [4]: 1910 nM; IC50 [2]: 400 nM; Ratio IC50 [3]: 9.5; IC50 (A549): 3820 nM

Q: For `NCCC(=O)Nc1ccc(-c2ccnc(Nc3ccc4ncsc4c3)n2)cc1`, which IC50 [4] is on record?
A: The IC50 was 731 nM.

Q: What about the IC50 [2] of the same compound?
A: The IC50 was 270 nM.

Q: What about the Ratio IC50 [5] of the same compound?
A: The Ratio IC50 was 3.

Q: With `CN(C)S(=O)(=O)c1ccc(-c2ccnc(Nc3ccc4ncsc4c3)n2)cc1` as the compound, how does the inhibition [1] read?
A: The inhibition was 28%.

Q: What about the IC50 [2] of the same compound?
A: The IC50 was 410 nM.

Q: And the Ratio IC50 [5]?
A: Its Ratio IC50 is > 24.

Q: What about the “Ratio IC50” value [3] of the same compound?
A: The value was 4.7.

Q: And the IC50 (A549)?
A: Its IC50 is 1920 nM.

Q: With `O=C(Nc1ccc(-c2ccnc(Nc3ccc4ncsc4c3)n2)cc1)C1CCCN1` (stereo unspecified) as the compound, how does the IC50 [4] read?
A: The IC50 was 146 nM.

Q: What about the IC50 [2] of the same compound?
A: Its IC50 is 130 nM.

Q: What about the Ratio IC50 [5] of the same compound?
A: Its Ratio IC50 is 1.

Q: For `COc1ccc(S(=O)(=O)Nc2ccc(-c3ccnc(Nc4ccc5ncsc5c4)n3)cc2)cc1`, which IC50 [2] is on record?
A: Its IC50 is 8900 nM.

Q: With `O=S(=O)(c1ccc(-c2ccnc(Nc3ccc4ncsc4c3)n2)cc1)N1CCNCC1` as the compound, how does the IC50 [4] read?
A: Its IC50 is 850 nM.

Q: And the IC50 [2]?
A: Its IC50 is 64 nM.

Q: What about the Ratio IC50 [5] of the same compound?
A: The Ratio IC50 was 13.

Q: What about the “Ratio IC50” value [3] of the same compound?
A: The value was 89.

Q: And the IC50 (A549)?
A: Its IC50 is 5700 nM.

Q: With `O=S(=O)(c1ccc(-c2ccnc(Nc3ccc4ncsc4c3)n2)cc1)N1CCSCC1` as the compound, how does the IC50 [4] read?
A: Its IC50 is 5000 nM.

Q: And the IC50 [2]?
A: The IC50 was 250 nM.

Q: And the “Ratio IC50” value [3]?
A: Its value is 1.2.

Q: And the IC50 (A549)?
A: Its IC50 is 289 nM.

Q: With `O=S(=O)(c1ccc(-c2ccnc(Nc3ccc4ncsc4c3)n2)cc1)N1CCOCC1` as the compound, how does the IC50 [4] read?
A: The IC50 was 6700 nM.

Q: And the IC50 [2]?
A: Its IC50 is 380 nM.

Q: What about the “Ratio IC50” value [3] of the same compound?
A: The value was 4.8.

Q: And the IC50 (A549)?
A: Its IC50 is 1810 nM.

Q: For `Cc1ccc(S(=O)(=O)Nc2ccc(-c3ccnc(Nc4ccc5ncsc5c4)n3)cc2)cc1`, which IC50 [2] is on record?
A: The IC50 was 1500 nM.

Q: For `O=c1ccn(-c2ccc(-c3ccnc(Nc4ccc5ncsc5c4)n3)cc2)cc1`, which inhibition [1] is on record?
A: The inhibition was 14%.

Q: What about the IC50 [2] of the same compound?
A: Its IC50 is 2500 nM.

Q: And the Ratio IC50 [5]?
A: Its Ratio IC50 is > 4.

Q: Which results are given for `O=S(=O)(c1ccc(-c2ccnc(Nc3ccc4ncsc4c3)n2)cc1)N1CCCCC1`?
A: inhibition [1]: 30%; IC50 [2]: 600 nM; Ratio IC50 [5]: > 17; Ratio IC50 [3]: 3.5; IC50 (A549): 2080 nM

Q: With `c1cn(-c2ccc(-c3ccnc(Nc4ccc5ncsc5c4)n3)cc2)cn1` as the compound, how does the inhibition [1] read?
A: The inhibition was 34%.

Q: And the IC50 [2]?
A: The IC50 was 700 nM.

Q: And the Ratio IC50 [5]?
A: The Ratio IC50 was > 14.
